In the SangsterLogP compilation:

SMILES | logP
CN(C)S(=O)(=O)c1ccc2ncccc2c1 | 1.53
CN(C)S(=O)(=O)c1cnc2ccccc2c1 | 1.86
CN(C)S(=O)(=O)c1ccnc2ccccc12 | 1.84
CNS(=O)(=O)c1ccnc2ccccc12 | 1.32
CN(C)S(=O)(=O)c1ccc2ccccc2n1 | 1.98
CNS(=O)(=O)c1cnc2ccccc2c1 | 1.4
CNS(=O)(=O)c1ccc2ccccc2n1 | 1.57
CN(C)S(=O)(=O)c1ccc2cccnc2c1 | 1.57

More lines, now with the values ahead:

logP | SMILES
1.02 | CNS(=O)(=O)c1ccc2cccnc2c1
1 | CNS(=O)(=O)c1ccc2ncccc2c1
1.06 | CNS(=O)(=O)c1cccc2ncccc12
0.6 | NS(=O)(=O)c1cccc2ncccc12
0.51 | NS(=O)(=O)c1cccc2cccnc12
0.61 | NS(=O)(=O)c1ccc2cccnc2c1
1.13 | CNS(=O)(=O)c1cccc2cccnc12
0.91 | NS(=O)(=O)c1cnc2ccccc2c1
0.93 | NS(=O)(=O)c1ccnc2ccccc12
1.16 | NS(=O)(=O)c1ccc2ccccc2n1
1.69 | CN(C)S(=O)(=O)c1cccc2cccnc12
1.56 | CN(C)S(=O)(=O)c1cccc2ncccc12
